# Reference: patent US20120232070A1, “Use of Indole Derivatives as Nurr-1 Activators for the Application Thereof as a Medicament for the Treatment of Parkinson's Disease” (Laboratoires Fournier SA, priority 2009, published 2012)
# How the values were obtained:
# [1] = molecular target: hNurr1_RXRαFL (NURR1/RXRα heterodimer) (Homo sapiens, UniProt P19793+P43354); experiment: Transactivation assay in Cos-7 cells, NURR-1-Gal4 / RXRα, luciferase reporter; type: cell-based; conditions: for Emax: COS-7, read-out: hNurr1_RXRαFL Eff (%), efficacy in % relative to the reference XCT0135908 at 2·10^−5 M (=100%); for EC50: Cos-7 cells, overnight incubation; for hNurr1_RXRαFL Eff (%): efficacy in % relative to the reference XCT0135908 at 2·10^−5 M (=100%)
# Sequence of hNurr1_RXRαFL (NURR1/RXRα heterodimer) (P19793 whole entry, the tested form may be a part): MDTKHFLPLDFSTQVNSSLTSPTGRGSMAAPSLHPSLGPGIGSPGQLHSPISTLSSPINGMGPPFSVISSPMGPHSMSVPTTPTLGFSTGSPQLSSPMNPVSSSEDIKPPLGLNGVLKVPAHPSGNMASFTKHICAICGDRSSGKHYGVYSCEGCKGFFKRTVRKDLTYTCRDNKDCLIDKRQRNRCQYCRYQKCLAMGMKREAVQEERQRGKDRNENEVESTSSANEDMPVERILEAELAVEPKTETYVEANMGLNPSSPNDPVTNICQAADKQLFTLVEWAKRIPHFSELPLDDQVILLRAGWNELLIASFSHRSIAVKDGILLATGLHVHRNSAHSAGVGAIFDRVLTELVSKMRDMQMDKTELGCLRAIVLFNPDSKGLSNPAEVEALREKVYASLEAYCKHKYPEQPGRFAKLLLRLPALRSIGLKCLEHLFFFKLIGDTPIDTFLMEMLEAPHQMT
# Sequence of hNurr1_RXRαFL (NURR1/RXRα heterodimer) (P43354 328-598): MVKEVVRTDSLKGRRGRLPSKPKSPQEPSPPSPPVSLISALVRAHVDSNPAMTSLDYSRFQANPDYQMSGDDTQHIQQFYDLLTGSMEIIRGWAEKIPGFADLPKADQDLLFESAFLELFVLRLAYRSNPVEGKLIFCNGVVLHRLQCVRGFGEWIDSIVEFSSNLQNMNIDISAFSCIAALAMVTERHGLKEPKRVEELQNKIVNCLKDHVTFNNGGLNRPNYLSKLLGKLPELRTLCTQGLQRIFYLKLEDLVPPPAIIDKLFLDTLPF
# Protocol: (§1) First, the capacity of the compounds according to the invention for acting as an activator of the heterodimers formed by the NURR-1 nuclear receptor and the RXR nuclear receptors was measured by an in vitro assay.
# (§2) A transactivation assay was used as a primary screening assay. Cos-7 cells were co-transfected with a plasmid expressing a chimera of the human receptor NURR-1-Gal4, a plasmid expressing the human receptor RXR (RXRα or RXRγ receptor) and a reporter plasmid 5Gal4pGL3-TK-Luc. The transfections were performed by means of a chemical agent (Jet PEI).
# (§3) The transfected cells were distributed in 384-well plates and left resting for 24 hours.
# (§4) After 24 hours, the culture medium was changed. The products according to the invention were added (final concentration between 10^−4 and 3·10^−10 M) to the culture medium. After overnight incubation, luciferase expression was measured after addition of “SteadyGlo” according to the manufacturer's instructions (Promega).
# (§5) 4-[[6-Methyl-2-phenyl-5-(2-prop enyl)-4-pyrimidinyl]amino]-benzoic acid (called XCT0135908, which was described in the article by Wallen-Mackenzie et al. published in Genes & Development 17, pages 3036-3047) at 2·10^−5 M (RXR agonist) was used as reference.
# (§6) The levels of induction (designated by “efficiency”) were calculated relative to the baseline activity of each heterodimer. The results were expressed as a percentage of the level of induction relative to the level of induction obtained with the reference (the level of induction of the reference is arbitrarily taken to be 100%).
# [2] = molecular target: hNurr1_RXRγFL (NURR1/RXRγ heterodimer) (Homo sapiens, UniProt P43354+P48443); experiment: Transactivation assay in Cos-7 cells, NURR-1-Gal4 / RXRγ, luciferase reporter; type: cell-based
# Sequence of hNurr1_RXRγFL (NURR1/RXRγ heterodimer) (P43354 328-598): as above
# Sequence of hNurr1_RXRγFL (NURR1/RXRγ heterodimer) (P48443 whole entry, the tested form may be a part): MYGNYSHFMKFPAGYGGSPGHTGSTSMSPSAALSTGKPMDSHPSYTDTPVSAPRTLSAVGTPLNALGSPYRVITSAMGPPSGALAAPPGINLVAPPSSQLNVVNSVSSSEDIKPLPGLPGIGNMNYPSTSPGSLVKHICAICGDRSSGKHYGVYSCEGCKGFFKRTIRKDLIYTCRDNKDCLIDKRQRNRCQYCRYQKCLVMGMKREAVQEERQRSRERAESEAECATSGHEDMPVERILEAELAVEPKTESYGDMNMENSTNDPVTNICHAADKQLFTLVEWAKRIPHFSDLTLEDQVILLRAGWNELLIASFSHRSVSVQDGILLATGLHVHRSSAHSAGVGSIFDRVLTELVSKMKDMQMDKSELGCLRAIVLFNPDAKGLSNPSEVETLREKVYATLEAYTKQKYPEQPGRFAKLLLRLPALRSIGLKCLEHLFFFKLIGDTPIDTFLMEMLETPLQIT
# Protocol: as §1, §2, §3, §4, §5, §6
SMILES,Emax [1] [%],EC50 [1] [nM],"Emax ([2]; COS-7, read-out: hNurr1_RXRγFL Eff (%), efficacy in % relative to the reference XCT0135908 at 2·10^−5 M (=100%)) [%]","EC50 ([2]; Cos-7 cells, overnight incubation) [nM]",hNurr1_RXRαFL Eff (%) [1] [%]
"Cn1cc(Cc2cc3cc(C(F)(F)F)ccc3n2S(=O)(=O)c2cccc(C(C)(C)C)c2)cc1C(=O)O [Example 87, 4-[[1-[[3-(1,1-dimethylethyl)-phenyl]sulfonyl]-5-trifluoromethyl-1H-indol-2-yl]methyl]-1-methyl-pyrrol-2-yl-carboxylic acid]",123,30,,,
"COc1c(Cc2cc3cc(C(F)(F)F)ccc3n2S(=O)(=O)c2cccc(C(C)(C)C)c2)cccc1C(=O)O [Example 207, 3-[[1-[[3-(1,1-dimethylethyl)-phenyl]sulfonyl]-5-trifluoromethyl-1H-indol-2-yl]methyl]-2-methoxybenzoic acid]",48,513,,,
"CN1CCOc2ccc(S(=O)(=O)n3c(Cc4cc(C(=O)O)co4)cc4cc(C(F)(F)F)ccc43)cc21 [Example 76, 5-[[1-[[4-methyl-3,4-dihydro-2H-benzo[1,4]oxazin-6-yl)-sulfonyl]-5-trifluoromethyl-1H-indol-2-yl]methyl]-furan-3-carboxylic acid]",138,63,,,
"O=C(O)c1ccc(Cc2cc3cc(C(F)(F)F)ccc3n2S(=O)(=O)c2ccc3c(c2)OCCO3)cc1 [Example 22, 4-[[1-[(2,3-dihydro-1,4-benzodioxin-6-yl)sulfonyl]-5-(trifluoromethyl)-1H-indol-2-yl]methyl]benzoic acid]",45,207,43,346,
"C=C(c1ccc(C(=O)O)s1)c1cc2cc(C(F)(F)F)ccc2n1S(=O)(=O)c1cccc(C(C)(C)C)c1 [Example 96, 5-[1-[1-[[3-(1,1-dimethylethyl)-phenyl]sulfonyl]-5-(trifluoromethyl)-1H-indol-2-yl]-1-ethenyl]-thiophene-2-carboxylic acid]",54,339,,,
"CN1CCOc2ccc(S(=O)(=O)n3c(Cc4csc(C(=O)O)c4)cc4cc(C(F)(F)F)ccc43)cc21 [Example 74, 4-[[1-[(4-methyl-3,4-dihydro-2H-benzo[1,4]oxazin-6-yl)-sulfonyl]-5-trifluoromethyl-1H-indol-2-yl]methyl]-thiophene-2-carboxylic acid]",150,40,,,
"COc1ccc(C(=O)O)cc1Cc1cc2cc(C(F)(F)F)ccc2n1S(=O)(=O)c1cccc(C(C)(C)C)c1 [Example 208, 3-[[1-[[3-(1,1-dimethylethyl)-phenyl]sulfonyl]-5-trifluoromethyl-1H-indol-2-yl]methyl]-4-methoxybenzoic acid]",31,240,,,
"CC(C)(C)c1cccc(S(=O)(=O)n2c(C(C)(O)c3ccc(C(=O)O)s3)cc3cc(C(F)(F)F)ccc32)c1 (stereo not drawn) [Example 95, 5-[1-[1-[[3-(1,1-dimethylethyl)-phenyl]sulfonyl]-5-(trifluoromethyl)-1H-indol-2-yl]-1-hydroxyethyl]-thiophene-2-carboxylic acid]",99,209,,,
"CC(C)(C)c1cccc(S(=O)(=O)n2c(Cc3cc(F)cc(C(=O)O)c3)cc3cc(C(F)(F)F)ccc32)c1 [Example 201, 3-[[1-[[3-(1,1-dimethylethyl)-phenyl]sulfonyl]-5-trifluoromethyl-1H-indol-2-yl]methyl]-5-fluorobenzoic acid]",,,,,96
"CN1CCOc2ccc(S(=O)(=O)n3c(Cc4ccc(C(=O)O)o4)cc4cc(C(F)(F)F)ccc43)cc21 [Example 75, 5-[[1-[(4-methyl-3,4-dihydro-2H-benzo[1,4]oxazin-6-yl)-sulfonyl]-5-trifluoromethyl-1H-indol-2-yl]methyl]-furan-2-carboxylic acid]",114,66,,,
"CC(C)(C)c1cccc(S(=O)(=O)n2c(Cc3cc(C(=O)O)c(F)cc3Cl)cc3cc(C(F)(F)F)ccc32)c1 [Example 203, 3-[[1-[[3-(1,1-dimethylethyl)-phenyl]sulfonyl]-5-trifluoromethyl-M-indol-2-yl]methyl]-4-chloro-6-fluorobenzoic acid]",,85,,,83
"CC(C)(C)c1cccc(S(=O)(=O)n2c(Cc3ccc(C(=O)O)cc3Cl)cc3cc(C(F)(F)F)ccc32)c1 [Example 205, 4-[[1-[[3-(1,1-dimethylethyl)-phenyl]sulfonyl]-5-trifluoromethyl-1H-indol-2-yl]methyl]-3-chlorobenzoic acid]",75,98,,,
"CC(C)(C)c1cccc(S(=O)(=O)n2c(C(=O)c3ccc(C(=O)O)s3)cc3cc(C(F)(F)F)ccc32)c1 [Example 94, 5-[[1-[[3-(1,1-dimethylethyl)-phenyl]sulfonyl]-5-trifluoromethyl-1H-indol-2-yl]-carbonyl]-thiophene-2-carboxylic acid]",106,1240,,,
"CC(C)c1ccc(S(=O)(=O)n2c(Cc3csc(C(=O)O)c3)cc3cc(C(F)(F)F)ccc32)cc1 [Example 72, 4-[[1-[[4-(1-methylethyl)-phenyl]sulfonyl]-5-trifluoromethyl-1H-indol-2-yl]methyl]-thiophene-2-carboxylic acid]",131,72,,,
"CC(C)(C)c1cccc(S(=O)(=O)n2c(C(O)c3ccc(C(=O)O)s3)cc3cc(C(F)(F)F)ccc32)c1 (stereo not drawn) [Example 91, 5-[[1-[[3-(1,1-dimethylethyl)-phenyl]sulfonyl]-5-trifluoromethyl-1H-indol-2-yl]hydroxymethyl]-thiophene-2-carboxylic acid]",100,72,,,
"COc1ccc(Cc2cc3cc(C(F)(F)F)ccc3n2S(=O)(=O)c2cccc(C(C)(C)C)c2)cc1C(=O)O [Example 202, 3-[[1-[[3-(1,1-dimethylethyl)-phenyl]sulfonyl]-5-trifluoromethyl-1H-indol-2-yl]methyl]-6-methoxybenzoic acid]",104,19,,,
O=C(O)c1cc(Cc2cc3cc(Cl)ccc3n2S(=O)(=O)c2ccc3c(c2)OCCO3)cs1 [Example 78],116,331,,,
"O=C(O)c1ccc(Cc2cc3cc(Cl)ccc3n2S(=O)(=O)c2ccc3c(c2)OCCO3)o1 [Example 79, 5-[[5-chloro-1-[(2,3-dihydro-benzo[1,4]dioxin-6-yl)sulfonyl]-1H-indol-2-yl]methyl]-furan-2-carboxylic acid]",147,724,,,
"CC(C)(C)c1cccc(S(=O)(=O)n2c(Cc3cc(F)cc(C(=O)O)c3)cc3cc(C(F)(F)F)ccc32)c1 [Example 200, 3-[[1-[[3-(1,1-dimethylethyl)-phenyl]sulfonyl]-5-trifluoromethyl-1H-indol-2-yl]methyl]-5-fluorobenzoic acid]",93,,,,
"O=C(O)c1ccc(Cc2cc3cc(C(F)(F)F)ccc3n2S(=O)(=O)c2ccc(C(=O)N3CCOCC3)cc2)cc1 [Example 129, 4-[[1-[4-(morpholine-4-carbonyl)benzenesulfonyl]-5-(trifluoromethyl)-1H-indol-2-yl]methyl]benzoic acid]",41,804,,,
"CC(C)(C)c1cccc(S(=O)(=O)n2c(Cc3cc(C(=O)O)ccc3F)cc3cc(C(F)(F)F)ccc32)c1 [Example 199, 3-[[1-[[3-(1,1-dimethylethyl)-phenyl]sulfonyl]-5-trifluoromethyl-1H-indol-2-yl]methyl]-4-fluorobenzoic acid]",118,22,,,
